Measurements as given in patent publication US12187773B2, “Modified GIP peptide analogues” (Antag Therapeutics ApS, priority 2018, dated 2025).
Where a SMILES comes first, the peptide text is derived from it. [ ]: non-standard residue; d: D form. The star is where a group is joined. C18 diacid = O=C(O)CCCCCCCCCCCCCCCCC(=O)*; C16 diacid = O=C(O)CCCCCCCCCCCCCCC(=O)*; pGlu = O=C1CC[C@@H](C(=O)O)N1

Assays:
Format in all cases: cell-based
[1] = target: T1, human GIP receptor (Homo sapiens, UniProt P48546); test: cAMP agonism (CisBio cAMP Dynamic 2 HTRF assay); details: for Emax: HEK293, read-out: cAMP agonism, % Efficacy, Table 1C, HEK-293 cells
T1 sequence (P48546 22-466): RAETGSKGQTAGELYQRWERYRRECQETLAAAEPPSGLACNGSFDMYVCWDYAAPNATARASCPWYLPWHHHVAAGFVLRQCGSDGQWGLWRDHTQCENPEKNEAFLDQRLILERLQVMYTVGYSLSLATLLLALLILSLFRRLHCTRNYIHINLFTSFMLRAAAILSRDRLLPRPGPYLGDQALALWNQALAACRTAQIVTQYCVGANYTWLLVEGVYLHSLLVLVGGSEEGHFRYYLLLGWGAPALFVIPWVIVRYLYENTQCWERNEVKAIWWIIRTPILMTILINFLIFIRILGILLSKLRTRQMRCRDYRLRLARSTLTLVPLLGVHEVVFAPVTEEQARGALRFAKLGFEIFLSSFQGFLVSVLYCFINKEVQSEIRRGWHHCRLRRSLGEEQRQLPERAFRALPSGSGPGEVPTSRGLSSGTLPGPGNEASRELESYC
Method: To test for agonistic properties at the GIP receptor, compounds were diluted and added to cells as described above and incubated for 30 min at 37° C. The resulting increase in intracellular cAMP was determined using the CisBio cAMP Dynamic 2 HTRF Assay Kit as described above.

[2] = target: T1, human GIP receptor; test: cAMP accumulation, antagonism (DiscoveRx HitHunter cAMP XS assay); set-up: host or cells: COS-7 (transient, calcium phosphate; pCMV-Script vector); details: Table 1B, DiscoveRx; for cAMP antagonism, % inhib: COS-7 cells, % inhibition of Emax; for IC50: cAMP antagonism, nM (IC50), transiently transfected COS-7 cells
Method in brief: (§1)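 cAMP accumulation measured by HitHunter cAMP XS in COS-7 cells transiently expressing human GIP receptor, after 30 min in HBS with 1 mM IBMX at 37 °C. Antagonists preincubated 10 min before GIP giving 50-80% of maximum, then 20 min more; agonist mode used 30 min ligand exposure.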

[3] = target: T1, human GIP receptor; test: cAMP accumulation, agonism (DiscoveRx HitHunter cAMP XS assay); set-up: host or cells: COS-7 (transient, calcium phosphate; pCMV-Script vector); details: for cAMP agonism, Emax: Table 1B, DiscoveRx, COS-7 cells; for Emax: COS-7, read-out: cAMP agonism, Emax
Method in brief: as §1

[4] = target: T1, human GIP receptor; test: cAMP antagonism (CisBio cAMP Dynamic 2 HTRF assay); set-up: pCMV-Script vector; details: Table 1C, CisBio, HEK-293 cells; for IC50: cAMP antagonism, nM (IC50), agonist GIP1-42 at EC50
Method in brief: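 Four-parameter fits of cAMP dose-response gave pIC50. cAMP fall was quantified by HTRF competition, ratio 665/620 nm after 60 min at room temperature, against a cAMP standard curve.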

Compound	Emax [1] [%]	cAMP antagonism, % inhib [2] [%]	IC50 [2] [nM]	cAMP agonism, Emax [3]	cAMP antagonism, % inhib [4] [%]	IC50 [4] [nM]	cAMP agonism, % Efficacy ([1]; Table 1C, HEK-293 cells) [%]	Emax [3] [%]
CC[C@H](C)[C@H](NC(=O)[C@H](CO)NC(=O)[C@H](Cc1ccc(O)cc1)NC(=O)[C@H](CC(=O)O)NC(=O)[C@H](CO)NC(=O)[C@@H](NC(=O)[C@H](Cc1ccccc1)NC(=O)[C@@H](NC(=O)CNC(=O)[C@@H]1CCC(=O)N1)[C@@H](C)O)[C@@H](C)CC)C(=O)N[C@@H](C)C(=O)N[C@@H](CCSC)C(=O)N[C@@H](CC(=O)O)C(=O)N[C@@H](CCCNC(=N)N)C(=O)N[C@H](C(=O)N[C@@H](CCCCNC(=O)CCCCCCCCCCCCCCCCC(=O)O)C(=O)N[C@@H](CCC(N)=O)C(=O)N[C@@H](CCC(N)=O)C(=O)N[C@@H](CC(=O)O)C(=O)N[C@@H](Cc1ccccc1)C(=O)N[C@H](C(=O)N[C@@H](CC(N)=O)C(=O)N[C@@H](Cc1c[nH]c2ccccc12)C(=O)N[C@@H](CC(C)C)C(=O)N[C@@H](CC(C)C)C(=O)N[C@@H](C)C(=O)N[C@@H](CCC(N)=O)C(=O)N[C@@H](CCCNC(=N)N)C(N)=O)C(C)C)[C@@H](C)CC [AT391] ([pGlu]GTFISDYSIAMDRIK(C18 diacid)QQDFVNWLLAQR-NH2)	0	100	10	No Agonism	95			
CC[C@H](C)[C@H](NC(=O)[C@H](CO)NC(=O)[C@H](Cc1ccc(O)cc1)NC(=O)[C@H](CC(=O)O)NC(=O)[C@H](CO)NC(=O)[C@@H](NC(=O)[C@H](Cc1ccccc1)NC(=O)[C@@H](NC(=O)CNC(=O)CN)[C@@H](C)O)[C@@H](C)CC)C(=O)N[C@@H](C)C(=O)N[C@@H](CCSC)C(=O)N[C@@H](CC(=O)O)C(=O)N[C@@H](CCCNC(=N)N)C(=O)N[C@H](C(=O)N[C@@H](CCCCNC(=O)CCCCCCCCCCCCCCC(=O)O)C(=O)N[C@@H](CCC(N)=O)C(=O)N[C@@H](CCC(N)=O)C(=O)N[C@@H](CC(=O)O)C(=O)N[C@@H](Cc1ccccc1)C(=O)N[C@H](C(=O)N[C@@H](CC(N)=O)C(=O)N[C@@H](Cc1c[nH]c2ccccc12)C(=O)N[C@@H](CC(C)C)C(=O)N[C@@H](CC(C)C)C(=O)N[C@@H](C)C(=O)N[C@@H](CCC(N)=O)C(=O)N[C@@H](CCCNC(=N)N)C(N)=O)C(C)C)[C@@H](C)CC [AT496] (H-GGTFISDYSIAMDRIK(C16 diacid)QQDFVNWLLAQR-NH2; N-terminus assumed)	0	100	12	No Agonism	100	39.8		
CC[C@H](C)[C@H](NC(=O)[C@H](CO)NC(=O)[C@H](Cc1ccc(O)cc1)NC(=O)[C@H](CC(=O)O)NC(=O)[C@H](CO)NC(=O)[C@@H](NC(=O)[C@H](Cc1ccccc1)NC(=O)[C@@H](NC(=O)CNC(=O)[C@@H](N)CO)[C@@H](C)O)[C@@H](C)CC)C(=O)N[C@@H](C)C(=O)N[C@@H](CCSC)C(=O)N[C@@H](CC(=O)O)C(=O)N[C@@H](CCCNC(=N)N)C(=O)N[C@H](C(=O)N[C@@H](CCCCNC(=O)CCCCCCCCCCCCCCC(=O)O)C(=O)N[C@@H](CCC(N)=O)C(=O)N[C@@H](CCC(N)=O)C(=O)N[C@@H](CC(=O)O)C(=O)N[C@@H](Cc1ccccc1)C(=O)N[C@H](C(=O)N[C@@H](CC(N)=O)C(=O)N[C@@H](Cc1c[nH]c2ccccc12)C(=O)N[C@@H](CC(C)C)C(=O)N[C@@H](CC(C)C)C(=O)N[C@@H](C)C(=O)N[C@@H](CCC(N)=O)C(=O)N[C@@H](CCCNC(=N)N)C(N)=O)C(C)C)[C@@H](C)CC [AT498] (H-SGTFISDYSIAMDRIK(C16 diacid)QQDFVNWLLAQR-NH2; N-terminus assumed)		95	21		85	13.2	5	6
CC[C@H](C)[C@H](NC(=O)[C@H](CO)NC(=O)[C@H](Cc1ccc(O)cc1)NC(=O)[C@H](CC(=O)O)NC(=O)[C@H](CO)NC(=O)[C@@H](NC(=O)[C@H](Cc1ccccc1)NC(=O)[C@@H](NC(=O)CNC(=O)[C@@H]1CCCN1)[C@@H](C)O)[C@@H](C)CC)C(=O)N[C@@H](C)C(=O)N[C@@H](CCSC)C(=O)N[C@@H](CC(=O)O)C(=O)N[C@@H](CCCNC(=N)N)C(=O)N[C@H](C(=O)N[C@@H](CCCCNC(=O)CCCCCCCCCCCCCCC(=O)O)C(=O)N[C@@H](CCC(N)=O)C(=O)N[C@@H](CCC(N)=O)C(=O)N[C@@H](CC(=O)O)C(=O)N[C@@H](Cc1ccccc1)C(=O)N[C@H](C(=O)N[C@@H](CC(N)=O)C(=O)N[C@@H](Cc1c[nH]c2ccccc12)C(=O)N[C@@H](CC(C)C)C(=O)N[C@@H](CC(C)C)C(=O)N[C@@H](C)C(=O)N[C@@H](CCC(N)=O)C(=O)N[C@@H](CCCNC(=N)N)C(N)=O)C(C)C)[C@@H](C)CC [AT500] (H-PGTFISDYSIAMDRIK(C16 diacid)QQDFVNWLLAQR-NH2; N-terminus assumed)	4	90		No Agonism	77	66.8		
CC[C@H](C)[C@H](NC(=O)[C@H](CO)NC(=O)[C@H](Cc1ccc(O)cc1)NC(=O)[C@H](CC(=O)O)NC(=O)[C@H](CO)NC(=O)[C@@H](NC(=O)[C@H](Cc1ccccc1)NC(=O)[C@@H](NC(=O)CNC(=O)CN)[C@@H](C)O)[C@@H](C)CC)C(=O)N[C@@H](C)C(=O)N[C@@H](CCSC)C(=O)N[C@@H](CC(=O)O)C(=O)N[C@@H](CCCNC(=N)N)C(=O)N[C@H](C(=O)N[C@@H](CCCCNC(=O)CC[C@H](NC(=O)CCCCCCCCCCCCCCC(=O)O)C(=O)O)C(=O)N[C@@H](CCC(N)=O)C(=O)N[C@@H](CCC(N)=O)C(=O)N[C@@H](CC(=O)O)C(=O)N[C@@H](Cc1ccccc1)C(=O)N[C@H](C(=O)N[C@@H](CC(N)=O)C(=O)N[C@@H](Cc1c[nH]c2ccccc12)C(=O)N[C@@H](CC(C)C)C(=O)N[C@@H](CC(C)C)C(=O)N[C@@H](C)C(=O)N[C@@H](CCC(N)=O)C(=O)N[C@@H](CCCNC(=N)N)C(N)=O)C(C)C)[C@@H](C)CC [AT502] (HELM PEPTIDE1{G.G.T.F.I.S.D.Y.S.I.A.M.D.R.I.K.Q.Q.D.F.V.N.W.L.L.A.Q.R.[am]}|PEPTIDE2{[O=C(O)CCCCCCCCCCCCCCC(=O)[*:2]].[gGlu]}$PEPTIDE1,PEPTIDE2,16:R3-2:R2$$$V2.0; N-terminus assumed)	13	85	52		65			5
CC[C@H](C)[C@H](NC(=O)[C@H](CO)NC(=O)[C@H](Cc1ccc(O)cc1)NC(=O)[C@H](CC(=O)O)NC(=O)[C@H](CO)NC(=O)[C@@H](NC(=O)[C@H](Cc1ccccc1)NC(=O)[C@@H](NC(=O)CNC(=O)[C@@H](N)CO)[C@@H](C)O)[C@@H](C)CC)C(=O)N[C@@H](C)C(=O)N[C@@H](CCSC)C(=O)N[C@@H](CC(=O)O)C(=O)N[C@@H](CCCNC(=N)N)C(=O)N[C@H](C(=O)N[C@@H](CCCCNC(=O)CC[C@H](NC(=O)CCCCCCCCCCCCCCC(=O)O)C(=O)O)C(=O)N[C@@H](CCC(N)=O)C(=O)N[C@@H](CCC(N)=O)C(=O)N[C@@H](CC(=O)O)C(=O)N[C@@H](Cc1ccccc1)C(=O)N[C@H](C(=O)N[C@@H](CC(N)=O)C(=O)N[C@@H](Cc1c[nH]c2ccccc12)C(=O)N[C@@H](CC(C)C)C(=O)N[C@@H](CC(C)C)C(=O)N[C@@H](C)C(=O)N[C@@H](CCC(N)=O)C(=O)N[C@@H](CCCNC(=N)N)C(N)=O)C(C)C)[C@@H](C)CC [AT504] (HELM PEPTIDE1{S.G.T.F.I.S.D.Y.S.I.A.M.D.R.I.K.Q.Q.D.F.V.N.W.L.L.A.Q.R.[am]}|PEPTIDE2{[O=C(O)CCCCCCCCCCCCCCC(=O)[*:2]].[gGlu]}$PEPTIDE1,PEPTIDE2,16:R3-2:R2$$$V2.0; N-terminus assumed)	0	90	21	No Agonism	85	39.8		
